Holding throughout (type): ADME, Microsome
Holding throughout (details): time 55 min

A short description of data set [1]: Clearance in rat microsomes assessed per mg protein at 1 uM preincubated for 10 mins followed by NADPH addition and measured after 1 to 45 mins by LC-MS/MS analysis.
Data set [2] can be described thus: Clearance in mouse microsomes assessed per mg protein at 1 uM preincubated for 10 mins followed by NADPH addition and measured after 1 to 45 mins by LC-MS/MS analysis.
Data set [3] is described as follows: Clearance in human microsomes assessed per mg protein at 1 uM preincubated for 10 mins followed by NADPH addition and measured after 1 to 45 mins by LC-MS/MS analysis.

We go through three molecules from ChEMBL document CHEMBL6103664, “Novel Pyrimidinyl Sulfonamide Derivatives as GPR17 Modulators” (ACS Med Chem Lett, 2025).

Molecules are shown by their SMILES.

With `COc1nc(NS(=O)(=O)c2c[nH]c(-c3ncccc3F)c2)nc(OC)c1OCCF`, the microsomal CLint at 1 µM in data set [1] turned out to be 32 µL/min/mg; in data set [2], 12 µL/min/mg; in data set [3] it was 10 µL/min/mg.

`COc1nc(NS(=O)(=O)c2c[nH]c(-c3nccs3)c2)nc(OC)c1OC(F)F`: the results for the microsomal CLint at 1 µM in data set [1], in data set [2] and in data set [3] were 50 µL/min/mg, 10 µL/min/mg and 10 µL/min/mg, respectively.

For `COc1nc(NS(=O)(=O)c2c[nH]c(-c3ccccc3)c2)nc(OC)c1OCC(F)F`, the microsomal CLint at 1 µM in data set [1] is 81 µL/min/mg; in data set [2], 21 µL/min/mg; in data set [3], 10 µL/min/mg.
